# Test results: patent publication US5393774A, “Phenylethanolamines, pharmaceutical compositions containing these compounds and process for preparing them” (priority 1990, dated 1995)
# Read-outs that look alike come from different tables or passages of the source.
# Test system: bronchospasm triggered by intravenous administration of 20 μg/kg of acetyl-choline
# Assay: broncholytic effect, test arrangement according to KONZETT and ROSSLER on anesthetized guinea-pigs
# Assay type: in vivo
# Conditions: Cavia porcellus, read-out: ED50 (broncholytic effect, reduction in acetyl-choline bronchospasm)
# [1] = after i.v. administration, anesthetized guinea-pigs, 20 μg/kg acetyl-choline i.v., linear regression analysis
# Protocol: The broncholytic effect was investigated by the test arrangement according to KONZETT and ROSSLER (Arch. exp. Path. Pharmak. 195, 71 (1940)) on anesthetized guinea-pigs. An ED50 was calculated from the average percentage reduction, achieved with the various intravenous doses, in the bronchospasm triggered by intravenous administration of 20 μg/kg of acetyl-choline, by linear regression analysis according to LINDER (Statistische Methoden, 4th Edition, pp. 148-162, Birkhauser, Basel 1964):
compound,measurement,setting,value
"Cl.N#Cc1cc(C(O)CNCCCCCCOCCCCc2ccccc2)cc(F)c1N (stereo not shown) [Substance B, 1-(4-amino-3-cyano-5-fluoro-phenyl)-2-[6-(4-phenylbutoxy)-hexyl-amino]ethanol-hydrochloride]",ED50,[1],2.5 µg/kg
"COc1ccc(CC(C)NCC(O)c2cc(F)c(N)c(C#N)c2)cc1.Cl (stereo not shown) [Substance C, 1-(4-amino-3-cyano-5-fluoro-phenyl)-2-[2-(4-methoxyphenyl)-1-methyl-ethylamino]-ethanol-hydrochloride]",ED50,,0.16 µg/kg
"CCOC(=O)Nc1c(F)cc(C(O)CNCCCCCCOCCCCc2ccccc2)cc1C#N.Cl (stereo not shown) [Substance A, 1-(4-ethoxycarbonylamino-3-cyano-5-fluoro-phenyl)-2-[6-(4-phenyl-butoxy)hexylamino]-ethanol-hydrochloride]",ED50,[1],10.2 µg/kg
Nc1c(Cl)cc(C(O)CNCCCCCCOCCCCc2ccccc2)cc1Cl (stereo not shown) [V],ED50,[1],> 400 µg/kg
